Legend:
IDO1 [1] = biological target: T1, IDO1 (Homo sapiens, UniProt P14902); experiment: Cellular IDO1 activity assay in IFN-γ induced MDA-MB-231 cells; type: cell-based; design: induce the expression of the native IDO1 enzyme from its mRNA in the MDA-MB-231 cells; endogenous in cells; host or cells: MDA-MB-231 cells induced with human IFN-γ (50 ng/mL); settings: IDO1 expression induced by human IFN-γ (50 ng/mL); mean of three
Method: The cellular enzyme activity assay was performed according to the reported procedure with minor modifications[19],[27]–[30],[33],[54]. Briefly, MDA-MB-231 breast cancer cells were selected for this assay because of the presence of IDO1 mRNA in this cell line. First, cells were grown in DMEM/F12 complete media overnight. Then different concentration of human interferon-gamma (IFN-γ) (from 5–1000 ng/mL) was added to it and incubated for 48 hours. This treatment is reported to allow over-expression of IDO1 enzyme in MDA-MB-231 cells. […] Sterile cell-culture grade PBS was used to wash the cells by centrifugation technique. Then, the pellet was lysed in 10 mM HEPES buffer by passing through a sterile syringe. The lysate was used for standard IDO1 assay as mentioned earlier. The relative amount of N-formylkynurenine generated in the presence of the different concentration of IFN-γ was used to optimize the required concentration of IFN-γ for the IDO1 inhibition assay. […] Cells stimulated with IFN-γ alone were used as negative control, while cells stimulated with L-Trp without compound served as positive control. The cells were washed with sterile cell culture grade PBS and lysed in 10 mM HEPES buffer by sterile syringe. The lysate was used for standard IDO1 assay, as mentioned earlier, and the extent of IDO1 enzyme inhibition was determined for the selected compounds.

TDO enzyme = biological target: T2, TDO enzyme (Homo sapiens, UniProt P48775); experiment: HPLC based TDO inhibition assay; type: biochemical
T2 construct: 6xHis (N); made in house; host or cells: Escherichia coli BL21 (DE3) (pET 28a vector)
T2 sequence (P48775 whole entry): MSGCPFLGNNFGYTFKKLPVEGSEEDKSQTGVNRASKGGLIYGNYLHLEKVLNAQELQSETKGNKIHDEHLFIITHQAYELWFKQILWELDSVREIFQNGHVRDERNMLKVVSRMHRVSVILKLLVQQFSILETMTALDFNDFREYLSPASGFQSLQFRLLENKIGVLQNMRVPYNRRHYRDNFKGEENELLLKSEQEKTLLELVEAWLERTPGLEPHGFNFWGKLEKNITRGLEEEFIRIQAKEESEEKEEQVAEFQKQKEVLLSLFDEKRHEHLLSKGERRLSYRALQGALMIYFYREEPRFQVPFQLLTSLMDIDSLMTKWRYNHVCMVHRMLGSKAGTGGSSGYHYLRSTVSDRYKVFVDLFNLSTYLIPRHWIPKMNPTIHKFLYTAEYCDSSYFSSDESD
Method: (§1) HPLC based IDO1, and TDO inhibition assays were performed according to the earlier reported procedure[19],[27]–[30]. The reaction mixture (250 µL) contained KPB (100 mM, pH 6.5 for IDO1 and 50 mM, pH 8.0 for TDO), sodium ascorbate (20 mM), methylene blue (10 µM), catalase (240 nM, from bovine liver, Sigma), L-Trp (150 µM), purified enzyme (40 nM for IDO1 and 25 nM for TDO), DMSO (0.05%, v/v), Triton-X 100 (0.01%, v/v) and inhibitors. The concentration of the compound was varied from 100 µM to 32 nM by serial dilution. The mixture was incubated at 37 °C for 1 hour in the absence and presence of the synthesized compounds. The reaction was then quenched using 50 µL of 30% (w/v) trichloroacetic acid and incubated at 65 °C for additional 15 minutes to allow complete hydrolysis of N-formylkynurenine to kynurenine. After that, the mixture was centrifuged at 10,000 rpm for 10 minutes, and 100 µL of clear solution was transferred to another tube for HPLC analysis. Then, 20 µL of the reaction mixture was then injected through Ascentis® express C18, 2.7 µm HPLC column with a flow rate of 0.5 mL/minute of the mobile phase containing 50% sodium citrate buffer (40 mM, pH 2.25) and 50% methanol (v/v) with 400 µM SDS. The area under the curve at 365 nm chromatogram corresponding to the kynurenine formation was recorded, and % of inhibition was calculated using standard curve prepared with pure kynurenine (from Sigma) under similar experimental conditions.

[2] = biological target: T3, purified human IDO1 enzyme (Homo sapiens, UniProt P14902); experiment: IDO1 inhibition assay by the spectrometric method (pDMAB); type: biochemical; settings: for IC50: purified human IDO1, spectrophotometric, mean of three independent assays, read-out: hIDO1 IC50; for fold stronger IDO1 inhibitory activity than 1a: in comparison with lead compound 1a
T3 construct: made in house; host or cells: Escherichia coli M15 (pQE30 vector with pREP4 plasmid)
T3 sequence (P14902 whole entry): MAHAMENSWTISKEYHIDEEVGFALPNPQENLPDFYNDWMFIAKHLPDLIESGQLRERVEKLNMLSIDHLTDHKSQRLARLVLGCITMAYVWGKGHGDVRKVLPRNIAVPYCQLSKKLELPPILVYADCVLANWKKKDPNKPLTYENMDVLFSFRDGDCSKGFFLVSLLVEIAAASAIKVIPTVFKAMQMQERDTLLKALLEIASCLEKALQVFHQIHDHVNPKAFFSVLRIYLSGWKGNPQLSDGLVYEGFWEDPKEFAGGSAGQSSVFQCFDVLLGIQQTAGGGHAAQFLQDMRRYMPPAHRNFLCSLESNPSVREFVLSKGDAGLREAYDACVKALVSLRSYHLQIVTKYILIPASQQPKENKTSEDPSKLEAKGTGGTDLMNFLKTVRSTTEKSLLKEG
Method: Both IDO1 and TDO inhibition assays were performed according to the reported procedures[26]–[30],[50],[51]. […] In the assay system, the minimum and maximum amount of DMSO was 0.02% and 2%, respectively. […] The concentration of the inhibitors was varied from 100 µM to 32 nM by serial dilution technique. Then, the reaction was quenched with 100 µL of 30% (w/v) trichloroacetic acid and was incubated for further 15 minutes at 65 °C. After that, 2% (w/v) pDMAB was used to quantify the amount of kynurenine formation. The absorbance of the reaction mixture was recorded by UV-Vis spectrophotometer at 480 nm.

IDO1 [3] = biological target: T1, IDO1; experiment: Kynurenine assay by HPLC analysis, IDO1; type: biochemical; design: made in house; host or cells: Escherichia coli M15 (pQE30 vector with pREP4 plasmid); settings: for IC50: HPLC based IDO1 inhibition assay; for % Of inhibition for IDO1 enzyme / inhibition at 0.032 µM / inhibition at 0.16 µM / inhibition at 0.8 µM / inhibition at 4 µM / inhibition at 20 µM / inhibition at 100 µM: HPLC
Method: as §1

[4] = biological target: T4, purified human TDO enzyme (Homo sapiens, UniProt P48775); experiment: TDO inhibition assay by the spectrometric method; type: biochemical; settings: spectrophotometric
T4 construct: 6xHis (N); made in house; host or cells: Escherichia coli BL21 (DE3) (pET 28a vector)
T4 sequence (P48775 whole entry): as the sequence (P48775 whole entry) above
Method: Both IDO1 and TDO inhibition assays were performed according to the reported procedures[26]–[30],[50],[51]. The solubility of the compounds in water was either moderate or poor. […] In the assay system, the minimum and maximum amount of DMSO was 0.02% and 2%, respectively. The standard reaction mixture (500 μL) containing KPB (100 mM, pH 6.5 for IDO1 enzyme and 50 mM, pH 8.0 for TDO enzyme), sodium ascorbate (20 mM), methylene blue (10 µM), catalase (240 nM, from bovine liver), L-Trp (150 µM), purified enzyme (40 nM for IDO1 and 25 nM for TDO), DMSO (0.05%, v/v), Triton-X 100 (0.01%, v/v) and inhibitors was incubated at 37 °C for 1 hour. The concentration of the inhibitors was varied from 100 µM to 32 nM by serial dilution technique. Then, the reaction was quenched with 100 µL of 30% (w/v) trichloroacetic acid and was incubated for further 15 minutes at 65 °C. After that, 2% (w/v) pDMAB was used to quantify the amount of kynurenine formation. The absorbance of the reaction mixture was recorded by UV-Vis spectrophotometer at 480 nm. The Km = 59.76 µM and Kcat = 6.18 sec^−1.

T1 sequence (P14902 whole entry): as the sequence (P14902 whole entry) above

Row | Compound | EC50 (IDO1 [1]) | % Of inhibition for TDO enzyme (TDO enzyme; 32 nM) | % Of inhibition for TDO enzyme (TDO enzyme; 160 nM) | % Of inhibition for TDO enzyme (TDO enzyme; 800 nM) | % Of inhibition for TDO enzyme (TDO enzyme; 4 µM) | % Of inhibition for TDO enzyme (TDO enzyme; 20 µM) | % Of inhibition for TDO enzyme (TDO enzyme; 100 µM) | IC50 [2] | IC50 (IDO1 [3]) | % Of inhibition for IDO1 enzyme (IDO1 [3]; 32 nM) | % Of inhibition for IDO1 enzyme (IDO1 [3]; 160 nM) | % Of inhibition for IDO1 enzyme (IDO1 [3]; 800 nM) | % Of inhibition for IDO1 enzyme (IDO1 [3]; 4 µM) | % Of inhibition for IDO1 enzyme (IDO1 [3]; 20 µM) | % Of inhibition for IDO1 enzyme (IDO1 [3]; 100 µM) | % of Enzyme inhibition (TDO) ([4]; 32 nM) | % of Enzyme inhibition (TDO) ([4]; 160 nM) | % of Enzyme inhibition (TDO) ([4]; 800 nM) | % of Enzyme inhibition (TDO) ([4]; 4 µM) | % of Enzyme inhibition (TDO) ([4]; 20 µM) | also measured
1 | NC(=O)c1n[nH]nc1-c1ccc(Cl)c(Cl)c1 [Compound 3j] | 0.053 ± 0.004 µM | 33% | 39% | 42% | 47% | 51% | 51% | 0.069 ± 0.004 µM | 0.099 ± 0.024 µM | 39% | 60% | 70% | 88% | 89% | 89% | 6% | 9% | 20% | 27% | 32% | % of Enzyme inhibition (TDO) ([4]; 100 µM): 60%
2 | NC(=O)c1n[nH]nc1-c1ccccc1 [Compound 3a, 5-phenyl-2H-1,2,3-triazole-4-carboxamide] | 1.3 ± 0.068 µM |  |  |  |  |  |  | 8.541 ± 0.084 µM | 1.19 ± 0.039 µM |  |  |  |  |  |  |  |  |  |  |  | inhibition at 0.032 µM (TDO enzyme; 32 nM): 3%; inhibition at 0.16 µM (TDO enzyme; 160 nM): 4%; inhibition at 0.8 µM (TDO enzyme; 800 nM): 17%; inhibition at 4 µM (TDO enzyme; 4 µM): 22%; inhibition at 20 µM (TDO enzyme; 20 µM): 25%; inhibition at 100 µM (TDO enzyme; 100 µM): 30%; fold stronger IDO1 inhibitory activity than 1a [2]: 10 fold; inhibition at 0.032 µM (IDO1 [3]; 32 nM): 11%; inhibition at 0.16 µM (IDO1 [3]; 160 nM): 31%; inhibition at 0.8 µM (IDO1 [3]; 800 nM): 36%; inhibition at 4 µM (IDO1 [3]; 4 µM): 63%; inhibition at 20 µM (IDO1 [3]; 20 µM): 79%; inhibition at 100 µM (IDO1 [3]; 100 µM): 80%; inhibition at 0.032 µM ([4]; 32 nM): 5%; inhibition at 0.16 µM ([4]; 160 nM): 7%; inhibition at 0.8 µM ([4]; 800 nM): 19%; inhibition at 4 µM ([4]; 4 µM): 23%; inhibition at 20 µM ([4]; 20 µM): 29%; inhibition at 100 µM ([4]; 100 µM): 42%
3 | CCOC(=O)c1n[nH]nc1-c1ccccc1 [Compound 2a, ethyl 5-phenyl-2H-1,2,3-triazole-4-carboxylate] | 3.26 ± 0.045 µM |  |  |  |  |  |  | 14.4 ± 3.36 µM | 2.79 ± 0.066 µM |  |  |  |  |  |  |  |  |  |  |  | inhibition at 0.032 µM (TDO enzyme; 32 nM): 9%; inhibition at 0.16 µM (TDO enzyme; 160 nM): 39%; inhibition at 0.8 µM (TDO enzyme; 800 nM): 49%; inhibition at 4 µM (TDO enzyme; 4 µM): 68%; inhibition at 20 µM (TDO enzyme; 20 µM): 68%; inhibition at 100 µM (TDO enzyme; 100 µM): 73%; fold stronger IDO1 inhibitory activity than 1a [2]: 6 fold; inhibition at 0.032 µM (IDO1 [3]; 32 nM): 26%; inhibition at 0.16 µM (IDO1 [3]; 160 nM): 31%; inhibition at 0.8 µM (IDO1 [3]; 800 nM): 35%; inhibition at 4 µM (IDO1 [3]; 4 µM): 61%; inhibition at 20 µM (IDO1 [3]; 20 µM): 76%; inhibition at 100 µM (IDO1 [3]; 100 µM): 81%; inhibition at 0.032 µM ([4]; 32 nM): 8%; inhibition at 0.16 µM ([4]; 160 nM): 17%; inhibition at 0.8 µM ([4]; 800 nM): 19%; inhibition at 4 µM ([4]; 4 µM): 23%; inhibition at 20 µM ([4]; 20 µM): 27%; inhibition at 100 µM ([4]; 100 µM): 34%
4 | O=C(O)c1n[nH]nc1-c1ccc(F)c(F)c1 [Compound 4a] | 1.23 ± 0.021 µM | 6% | 18% | 26% | 38% | 41% | 54% | 17.4 ± 0.918 µM | 8.944 ± 0.087 µM | 11% | 13% | 29% | 30% | 57% | 65% | 4% | 8% | 16% | 18% | 22% | % of Enzyme inhibition (TDO) ([4]; 100 µM): 30%

From article PMC6895048, “4,5-Disubstituted 1,2,3-triazoles: Effective Inhibition of Indoleamine 2,3-Dioxygenase 1 Enzyme Regulates T cell Activity and Mitigates Tumor Growth” (Scientific Reports, 2019)
